Data taken from patent publication US20170210751A1, “PRMT5 INHIBITORS AND USES THEREOF” (Epizyme, Inc., priority 2014, published 2017).

How the values were obtained:
[1] = target: T1, PRMT5/MEP50 (Homo sapiens, UniProt O14744); assay: PRMT5 Biochemical Assay (PRMT5/MEP50 enzyme assay on peptide substrate, 3H-SAM Flashplate); conditions: PRMT5/MEP50 4 nM, 3H-SAM 75 nM, peptide 40 nM, 30 min preincubation at 25 degrees Celsius
T1 construct: Flag-PRMT5; made in house; host or cells: Spodoptera frugiperda (SF9) insect cells, baculovirus (pDEST8)
Excerpt: S-adenosylmethionine (SAM), S-adenosylhomocysteine (SAH), bicine, KCl, Tween20, dimethylsulfoxide (DMSO), bovine skin gelatin (BSG), and Tris(2-carboxyethyl)phosphine hydrochloride solution (TCEP) were purchased from Sigma-Aldrich at the highest level of purity possible. ^3H-SAM was purchase from American Radiolabeled Chemicals with a specific activity of 80 Ci/mmol. 384-well streptavidin Flashplates were purchased from PerkinElmer.
Peptide representative of human histone H4 residues 1-15 was synthesized with a C-terminal linker-affinity tag motif and a C-terminal amide cap by 21st Century Biochemicals. The peptide was high high-performance liquid chromatography (HPLC) purified to greater than 95% purity and confirmed by liquid chromatography mass spectrometry (LC-MS). The sequence was Ac-[…][K-Biot]-amide (SEQ ID NO.:3).
Full-length human PRMT5 (NM_006109.3) transcript variant 1 clone was amplified from a fetal brain cDNA library, incorporating flanking 5′ sequence encoding a FLAG tag ([…]) (SEQ ID NO.:4) fused directly to Ala 2 of PRMT5. Full-length human MEP50 (NM_024102) clone was amplified from a human testis cDNA library incorporating a 5′ sequence encoding a 6-histidine tag (MHHHHHH) (SEQ ID NO.:5) fused directly to Arg 2 of MEP50. The amplified genes were sublconed into pENTR/D/TEV (Life Technologies) and subsequently transferred by Gateway™ attL×attR recombination to pDEST8 baculvirus expression vector (Life Technologies).
Recombinant baculovirus and Baculovirus-Infected Insect Cells (BIIC) were generated according to Bac-to-Bac kit instructions (Life Technologies) and Wasilko, 2006, respectively. Protein over-expression was accomplished by infecting exponentially growing Spodoptera frugiperda (SF9) cell culture at 1.2×10^6 cell/ml with a 5000 fold dilution of BIIC stock. Infections were carried out at 27° C. for 72 hours, harvested by centrifugation, and stored at −80° C. for purification.
Flag-PRMT5/6His-MeP50 was eluted with 300 mM Imidazole in the same buffer. The purity of recovered protein was 87%. Reference: Wasilko, D. J. and S. E. Lee: “TIPS: titerless infected-cells preservation and scale-up” Bioprocess J., 5 (2006), pp. 29-32.
General Procedure for PRMT5/MEP50 Enzyme Assays on Peptide Substrates.
The assays were all performed in a buffer consisting of 20 mM Bicine (pH=7.6), 1 mM TCEP, 0.005% BSG, and 0.002% Tween20, prepared on the day of use. Compounds in 100% DMSO (1 ul) were spotted into a polypropylene 384-well V-bottom plates (Greiner) using a Platemate Plus outfitted with a 384-channel head (Thermo Scientific). DMSO (1 ul) was added to Columns 11, 12, 23, 24, rows A-H for the maximum signal control and 1 ul of SAH, a known product and inhibitor of PRMT5/MEP50, was added to columns 11, 12, 23, 24, rows I-P for the minimum signal control. A cocktail (40 ul) containing the PRMT5/MEP50 enzyme and the peptide was added by Multidrop Combi (Thermo-Fisher). The compounds were allowed to incubate with PRMT5/MEP50 for 30 min at 25 degrees Celsius, then a cocktail (10 ul) containing ^3H-SAM was added to initiate the reaction (final volume=51 ul). The final concentrations of the components were as follows: PRMT5/MEP50 was 4 nM, ^3H-SAM was 75 nM, peptide was 40 nM, SAH in the minimum signal control wells was 100 uM, and the DMSO concentration was 1%. The assays were stopped by the addition of non-radioactive SAM (10 ul) to a final concentration of 600 uM, which dilutes the ^3H-SAM to a level where its incorporation into the peptide substrate is no longer detectable. 50 ul of the reaction in the 384-well polypropylene plate was then transferred to a 384-well Flashplate and the biotinylated peptides were allowed to bind to the streptavidin surface for at least 1 hour before being washed three times with 0.1% Tween20 in a Biotek ELx405 plate washer. […]

[2] = tested on: Z-138 cell line; assay: Z-138 Proliferation Assay (Cell Titer Glo); assay type: cell-based; conditions: Homo sapiens, 120 h; Z-138 cells, 5 days incubation, ATP (Cell Titer Glo)
Excerpt: Z-138 Proliferation Assay
Z-138 suspension cells were purchased from ATCC (American Type Culture Collection, Manassas, Va.). RPMI/Glutamax medium, penicillin-streptomycin, heat inactivated fetal bovine serum were purchased from Life Technologies, Grand Island, N.Y., USA. V-bottom polypropylene 384-well plates were purchased from Greiner Bio-One, Monroe, N.C., USA. Cell culture 384-well white opaque plates were purchased from Perkin Elmer, Waltham, Mass., USA. Cell-Titer Glo® was purchased from Promega Corporation, Madison, Wis., USA. SpectraMax M5 plate reader was purchased from Molecular Devices LLC, Sunnyvale, Calif., USA.
Z-138 suspension cells were maintained in growth medium (RPMI 1640 supplemented with 10% v/v heat inactivated fetal bovine serum and cultured at 37° C. under 5% CO2. Under assay conditions, cells were incubated in assay medium (RPMI 1640 supplemented with 10% v/v heat inactivated fetal bovine serum and 100 units/mL penicillin-streptomycin) at 37° C. under 5% CO2.
For the assessment of the effect of compounds on the proliferation of the Z-138 cell line, exponentially growing cells were plated in 384-well white opaque plates at a density of 10,000 cells/ml in a final volume of 50 μl of assay medium. A compound source plate was prepared by performing triplicate nine-point 3-fold serial dilutions in DMSO, beginning at 10 mM (final top concentration of compound in the assay was 20 μM and the DMSO was 0.2%). A 100 nL aliquot from the compound stock plate was added to its respective well in the cell plate. […] After addition of compounds, assay plates were incubated for 5 days at 37° C., 5% CO2, relative humidity >90%.
Cell viability was measured by quantitation of ATP present in the cell cultures, adding 35 μl of Cell Titer Glo® reagent to the cell plates. Luminescence was read in the SpectraMax M5 microplate reader. The concentration of compound inhibiting cell viability by 50% was determined using a 4-parametric fit of the normalized dose response curves.

[3] = tested on: Symmetric di-Methyl Arginine in Z-138 cells; assay: Z-138 Methylation Assay (In Cell Western for symmetric di-methyl arginine); assay type: cell-based; conditions: Homo sapiens, 96 hours incubation, symmetric di-methyl arginine normalised to DNA content, read-out: ICW EC50
Excerpt: Z-138 suspension cells were purchased from ATCC (American Type Culture Collection, Manassas, Va.). RPMI/Glutamax medium, penicillin-streptomycin, heat inactivated fetal bovine serum, and D-PBS were purchased from Life Technologies, Grand Island, N.Y., USA. Odyssey blocking buffer, 800CW goat anti-rabbit IgG (H+L) antibody, and Licor Odyssey infrared scanner were purchased from Licor Biosciences, Lincoln, Nebr., USA. Symmetric di-methyl arginine antibody was purchased from EMD Millipore, Billerica, Mass., USA. 16% Paraformaldehyde was purchased from Electron Microscopy Sciences, Hatfield, Pa., USA.
Z-138 suspension cells were maintained in growth medium (RPMI 1640 supplemented with 10% v/v heat inactivated fetal bovine serum and 100 units/mL penicillin-streptomycin) and cultured at 37° C. under 5% CO2.
Cell Treatment, In Cell Western (ICW) for detection of Symmetric di-Methyl Arginine and DNA content.
Z-138 cells were seeded in assay medium at a concentration of 50,000 cells per mL to a 384-well cell culture plate with 50 μL per well. Compound (100 nL) from 384 well source plates was added directly to 384 well cell plate. Plates were incubated at 37° C., 5% CO2 for 96 hours. After four days of incubation, 40 μL of cells from incubated plates were added to poly-D-lysine coated 384 well culture plates (BD Biosciences 356697). Plates were incubated at room temperature for 30 minutes then incubated at 37° C., 5% CO2 for 5 hours. After the incubation, 40 μL per well of 8% paraformaldehyde in PBS (16% paraformaldahyde was diluted to 8% in PBS) was added to each plate and incubated for 30 minutes. Plates were transferred to a Biotek 405 plate washer and washed 5 times with 100 μL per well of wash buffer (IX PBS with 0.1% Triton X-100 (v/v)). Next […] well of Odyssey blocking buffer were added to each plate and incubated 1 hour at room temperature. Blocking buffer was removed and 20 μL per well of primary antibody was added (symmetric di-methyl arginine diluted 1:100 in Odyssey buffer with 0.1% Tween 20 (v/v)) and plates were incubated overnight (16 hours) at 4° C. Plates were washed 5 times with 100 μL per well of wash buffer. Next 20 μL per well of secondary antibody was added (1:200 800CW goat anti-rabbit IgG (H+L) antibody, 1:1000 DRAQ5 (Biostatus limited) in Odyssey buffer with 0.1% Tween 20 (v/v)) and incubated for 1 hour at room temperature. The plates were washed 5 times with 100 μL per well wash buffer then 1 time with 100 μL per well of water. Plates were allowed to dry at room temperature then imaged on the Licor Odyssey machine which measures integrated intensity at 700 nm and 800 nm wavelengths. Both 700 and 800 channels were scanned.
First, the ratio for each well was determined by:
Each plate included fourteen control wells of DMSO only treatment (minimum inhibition) as well as fourteen control wells for maximum inhibition treated with 3 μM of a reference compound (Background wells). The average of the ratio values for each control type was calculated and used to determine the percent inhibition for each test well in the plate. Reference compound was serially diluted three-fold in DMSO for a total of nine test concentrations, beginning at 3 μM. Percent inhibition was determined and IC50 curves were generated using triplicate wells per concentration of compound.

T1 sequence (O14744 with tags, fused parts or gaps): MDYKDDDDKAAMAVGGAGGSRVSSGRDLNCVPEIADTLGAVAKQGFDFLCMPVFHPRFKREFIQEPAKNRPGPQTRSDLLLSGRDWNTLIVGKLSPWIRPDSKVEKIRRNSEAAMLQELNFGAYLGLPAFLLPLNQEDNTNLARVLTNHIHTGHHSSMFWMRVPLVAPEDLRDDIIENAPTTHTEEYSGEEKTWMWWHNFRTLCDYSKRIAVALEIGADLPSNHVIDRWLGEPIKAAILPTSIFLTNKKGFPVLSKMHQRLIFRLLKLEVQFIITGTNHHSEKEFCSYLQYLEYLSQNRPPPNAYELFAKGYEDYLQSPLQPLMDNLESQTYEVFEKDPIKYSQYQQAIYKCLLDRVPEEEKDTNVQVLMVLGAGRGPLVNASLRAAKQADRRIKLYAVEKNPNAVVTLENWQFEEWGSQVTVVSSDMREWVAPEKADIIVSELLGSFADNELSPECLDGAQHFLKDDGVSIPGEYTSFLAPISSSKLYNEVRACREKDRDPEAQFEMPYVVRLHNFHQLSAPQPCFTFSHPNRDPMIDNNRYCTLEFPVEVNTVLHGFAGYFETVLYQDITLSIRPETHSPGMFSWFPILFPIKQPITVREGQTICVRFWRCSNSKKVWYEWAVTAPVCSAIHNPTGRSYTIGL
T1 sequence (Q9BQA1 with tags, fused parts or gaps partner limits assumed): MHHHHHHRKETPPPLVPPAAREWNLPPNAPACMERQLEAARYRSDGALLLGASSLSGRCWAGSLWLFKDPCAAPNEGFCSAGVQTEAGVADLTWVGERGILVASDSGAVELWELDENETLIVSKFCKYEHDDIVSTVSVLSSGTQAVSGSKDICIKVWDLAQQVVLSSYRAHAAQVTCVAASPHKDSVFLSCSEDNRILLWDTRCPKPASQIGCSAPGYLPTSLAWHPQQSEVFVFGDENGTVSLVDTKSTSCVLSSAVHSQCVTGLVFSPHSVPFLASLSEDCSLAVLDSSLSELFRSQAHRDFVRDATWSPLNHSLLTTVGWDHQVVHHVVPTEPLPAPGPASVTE

Structure (SMILES) | IC50 [1] [µM] | EC50 [2] [µM] | EC50 [3] [µM]
CC(=O)N1CC(Nc2cc(C(=O)NC[C@H](O)CN3CCc4nc(C)sc4C3)ncn2)C1 [Compound 1-6, (S)-6-((1-acetylazetidin-3-yl)amino)-N-(2-hydroxy-3-(2-methyl-6,7-dihydrothiazolo[5,4-c]pyridin-5(4H)-yl)propyl)pyrimidine-4-carboxamide] | 1 to 10 | > 5 | –
OC(COc1cccc(CNC2CCCC2)c1)CN1CCc2ncccc2C1 (stereo not drawn) [Compound 2-1, 1-(3-((cyclopentylamino)methyl)phenoxy)-3-(7,8-dihydro-1,6-naphthyridin-6(5H)-yl)propan-2-ol] | > 50 | > 40 | –

More lines, main results first:

IC50 [1] [µM] | Structure (SMILES) | EC50 [2] [µM] | EC50 [3] [µM]
> 50 | OC(COc1cccc(CNC2CCCC2)c1)CN1CCc2[nH]ncc2C1 (stereo not drawn) [Compound 3-14] | > 40 | –
10 to 50 | OC(COc1cccc(CNC2CCCC2)c1)CN1CCc2[nH]nc(-c3ccccc3)c2C1 (stereo not drawn) [Compound 3-9, 1-(3-((cyclopentylamino)methyl)phenoxy)-3-(3-phenyl-6,7-dihydro-1H-pyrazolo[4,3-c]pyridin-5(4H)-yl)propan-2-ol] | 10 to 50 | –
> 10 | O=C(NC[C@H](O)CN1CCc2[nH]ncc2C1)c1cc(NC2COC2)ncn1 [Compound 3-19] | – | > 1
> 10 | O=C(NC[C@H](O)CN1CCc2cn[nH]c2C1)c1cc(NC2COC2)ncn1 [Compound 3-39] | > 5 | –
